Experimental data as given in patent US8119650B2, “Aminophenyl derivatives as novel inhibitors of histone deacetylase” (Janssen Pharmaceutica N.V., priority 2006, dated 2012).
In brackets after ≈: the same amount, converted by molar mass. Where two headings read alike, the source gives them in different places.

Experiments:
[1] = biological target: histone deacetylase (HeLa nuclear extracts); test: In vitro assay for inhibition of histone deacetylase with fluorescent-labelled substrate; format: biochemical; conditions: Fluor de Lys substrate
From the text: The in vitro assay for inhibition of histone deacetylase (see example C. 1) measures the inhibition of HDAC enzymatic activity obtained with the compounds of formula (I).
The HDAC Fluorescent Activity Assay/Drug Discovery Kit of Biomol (cat.No: AK-500-0001) was used. The HDAC Fluorescent Activity Assay is based on the Fluor de Lys (Fluorogenic Histone deAcetylase Lysyl) substrate and developer combination. The Fluor de Lys substrate, comprises an acetylated lysine side chain. Deacetylation of the substrate sensitizes the substrate so that, in the second step, treatment with the Fluor de Lys developer produces a fluorophore.
HeLa nuclear extracts (supplier: Biomol) were incubated at 60 μg/ml with 75 μM of substrate. The Fluor de Lys substrate was added in a buffer containing 25 mM Tris, 137 mM NaCl, 2.7 mM KCl and 1 mM MgCl2.6H2O at pH 7.4. After 30 min, 1 volume of the developer was added. The fluorophore was excited with 355 nm light and the emitted light (450 nm) was be detected on a fluorometric plate reader.
For each experiment, controls (containing HeLa nuclear extract and buffer), a blank incubation (containing buffer but no HeLa nuclear extract) and samples (containing compound dissolved in DMSO and further diluted in buffer and HeLa nuclear extract) were run in parallel. In first instance, compounds were tested at a concentration of 10^−5M. […] All sample were tested 4 times. In each test the blank value was substracted from both the control and the sample values. The control sample represented 100% of substrate deactylation. For each sample the fluorescence was expressed as a percentage of the mean value of the controls. […] Herein the effects of test compounds are expressed as pIC50 (the negative log value of the IC50-value) (see Table F-2).

[2] = test system: A2780 ovarian carcinoma cells; test: Antiproliferative activity on A2780 cells (MTT); format: cell-based; conditions: Homo sapiens, 96 h, four days of incubation, read-out: Cellular activity pIC50 C.2 (converted)
Experimental: Cellular activity of the compounds of formula (I) was determined on A2780 tumour cells using a […] assay for cell toxicity or survival (Mosmann Tim, Journal of Immunological Methods 65: 55-63, 1983)(see example C.2).
All compounds tested were dissolved in DMSO and further dilutions were made in culture medium. Final DMSO concentrations never exceeded 0.1% (v/v) in cell proliferation assays. Controls contained A2780 cells and DMSO without compound and blanks contained DMSO but no cells. MTT was dissolved at 5 mg/ml in PBS. A glycine buffer comprised of 0.1 M glycine and 0.1 M NaCl buffered to pH 10.5 with NaOH (1 N) was prepared (all reagents were from Merck).
The human A2780 ovarian carcinoma cells (a kind gift from Dr. T. C. Hamilton [Fox Chase Cancer Centre, Pennsylvania, USA]) were cultured in RPMI 1640 medium supplemented with 2 mM L-glutamine, 50 μg/ml gentamicin and 10% fetal calf serum. Cells were routinely kept as monolayer cultures at 37° C. in a humidified 5% CO2 atmosphere. Cells were passaged once a week using a trypsin/EDTA solution at a split ratio of 1:40. All media and supplements were obtained from Life Technologies. Cells were free of mycoplasma contamination as determined using the Gen-Probe Mycoplasma Tissue Culture kit (supplier: BioMérieux).
Cells were seeded in NUNC™ 96-well culture plates (Supplier: Life Technologies) and allowed to adhere to the plastic overnight. Densities used for plating were 1500 cells per well in a total volume of 200 μl medium. After cell adhesion to the plates, medium was changed and drugs and/or solvents were added to a final volume of 200 μL Following four days of incubation, medium was replaced by 200 μl fresh medium and cell density and viability was assessed using an MTT-based assay. […] For each sample, the mean value for cell growth (in absorbance units) was expressed as a percentage of the mean value for cell growth of the control. […] Herein the effects of test compounds are expressed as pIC50 (the negative log value of the IC50-value) (see Table F-2).

[3] = Solubility at pH 2.3 (chemiluminescent nitrogen detector); format: physicochemical; conditions: pH 2.3, aqueous buffer; read-out: Solubility C.3.b. pH = 2.3
Experimental: The solubility of a compound measures the ability of a compound to stay in solution. In a first method the ability of a compound to stay in aqueous solution upon dilution (see example C.3.a) is measured. DMSO-stock solutions are diluted with a single aqueous buffer solvent in different consecutive steps. In this method, mixtures are then scanned in the BD Gentest Solubility Scanner for the occurrence of precipitation. In a second method the solubility of a compound at different pH's can be measured with the use of a Chemiluminescent Nitrogen Detector (see example C.3.b).
The solubility of a compound, at pH 2.3, can also be measured with the use of a chemiluminescent nitrogen detector (see Table F-2).

Row | SMILES | Enzymatic activity pIC50 C.1 [1] | IC50 [2] [µM] | other results
1 | COc1cc(N)c(Cl)cc1C(=O)NC1CCN(CCCOc2ccc(F)cc2)CC1OC (centres unmarked) [Cisapride] |  |  | % metabolism (human, 15 min, 5 μM): 45%
2 | CCCn1cc(CCNCC2CCN(c3ncc(C(=O)Nc4ccccc4N)cn3)CC2)c2cc(Cl)ccc21 [Compound 1] | <6 | 3.16 | 
3 | Cn1cc(CNCC2CCN(c3ncc(C(=O)Nc4ccccc4N)cn3)CC2)c2ccccc21 [Compound 2] | 4.8 | 0.1 | solubility [3]: 3700 µg/mL (≈ 7.88 mM)
4 | CCCn1cc(CNCC2CCN(c3ncc(C(=O)Nc4ccccc4N)cn3)CC2)c2cc(F)ccc21 [Compound 3] | <6 | 1.58 | 
5 | CCCO [propanol] |  |  | % metabolism (15 min incubation with microsomes, compound 5 μM): 25%

More lines, main results first:

Row | Enzymatic activity pIC50 C.1 [1] | IC50 [2] [µM] | SMILES | other results
6 | <6 |  | Nc1ccccc1NC(=O)c1cnc(N2CCC(CNCCc3c[nH]c4ccccc34)CC2)nc1 [Compound 4] | 
7 | <6 |  | CS(=O)(=O)N(CCc1c[nH]c2ccccc12)CC1CCN(c2ncc(C(=O)Nc3ccccc3N)cn2)CC1 [Compound 5] | 
